From article PMC12643509, “High-throughput screens identify genotype-specific therapeutics for channelopathies” (JCI Insight, 2025)
Values joined by “and” are separate entries in the source; they are usually repeats but may differ in a detail not shown here. Equal values may be shown once.

What was measured:
WT Kv11.1 = WT Kv11.1 (Homo sapiens, UniProt Q12809); test: Whole-cell patch-clamp electrophysiology, drug in bath solution, WT; assay type: cell-based; set-up: expressed in transfected cells; Activation tail currents / Steady-state currents / Time constants of activation (τ): unit not given here; conditions: for Figure 4D value per cell vs Voltage (mV) / Figure 5E value per cell vs Voltage (mV) / Figure 5F value per cell vs Voltage (mV): individual replicates; for Inactivation time constant / Fast deactivation time constant / Slow deactivation time constant: Evacetrapib (15 µmol/L); for Peak tail current: Evacetrapib 15 µmol/L
From the text: Peak stea dy-sta te current was
Tail current was fit with a […]

[1] = humans; cited from earlier work
wild-type KV11.1 = wild-type KV11.1 (Homo sapiens, UniProt Q12809)
wild-type KV11.1, sequence (Q12809 whole entry): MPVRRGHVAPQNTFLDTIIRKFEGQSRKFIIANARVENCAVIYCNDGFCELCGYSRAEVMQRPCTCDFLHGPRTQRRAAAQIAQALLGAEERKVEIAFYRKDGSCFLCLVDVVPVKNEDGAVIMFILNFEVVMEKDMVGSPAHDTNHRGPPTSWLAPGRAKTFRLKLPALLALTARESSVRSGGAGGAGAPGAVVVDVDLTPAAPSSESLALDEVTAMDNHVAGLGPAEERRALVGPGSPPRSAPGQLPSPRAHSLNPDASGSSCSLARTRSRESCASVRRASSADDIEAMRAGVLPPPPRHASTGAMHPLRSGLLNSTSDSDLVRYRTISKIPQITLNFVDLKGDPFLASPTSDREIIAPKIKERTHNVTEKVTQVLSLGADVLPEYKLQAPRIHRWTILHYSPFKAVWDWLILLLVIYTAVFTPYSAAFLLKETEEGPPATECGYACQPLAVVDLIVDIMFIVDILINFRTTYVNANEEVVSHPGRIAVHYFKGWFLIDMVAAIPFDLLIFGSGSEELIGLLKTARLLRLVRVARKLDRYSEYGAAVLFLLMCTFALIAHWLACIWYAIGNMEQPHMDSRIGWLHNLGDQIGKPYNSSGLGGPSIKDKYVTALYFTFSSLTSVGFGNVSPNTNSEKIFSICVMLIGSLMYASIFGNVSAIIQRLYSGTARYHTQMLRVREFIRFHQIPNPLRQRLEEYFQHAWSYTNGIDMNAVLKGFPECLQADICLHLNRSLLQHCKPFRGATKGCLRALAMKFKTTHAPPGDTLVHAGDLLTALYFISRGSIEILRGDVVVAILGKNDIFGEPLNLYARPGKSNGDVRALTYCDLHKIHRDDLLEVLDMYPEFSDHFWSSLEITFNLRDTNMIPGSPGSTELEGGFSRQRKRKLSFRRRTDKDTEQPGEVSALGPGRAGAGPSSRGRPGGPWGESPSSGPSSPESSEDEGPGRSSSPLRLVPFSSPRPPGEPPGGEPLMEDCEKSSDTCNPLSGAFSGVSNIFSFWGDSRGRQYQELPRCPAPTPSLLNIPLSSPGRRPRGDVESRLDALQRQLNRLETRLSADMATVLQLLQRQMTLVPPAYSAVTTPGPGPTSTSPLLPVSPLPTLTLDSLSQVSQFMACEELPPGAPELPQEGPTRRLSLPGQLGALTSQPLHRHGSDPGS

WT Kv11.1, sequence (Q12809 whole entry): as above

Cc1cc(C)c2c(c1)[C@@H](N(Cc1cc(C(F)(F)F)cc(C(F)(F)F)c1)c1nnn(C)n1)CCCN2C[C@H]1CC[C@H](C(=O)O)CC1 [Evacetrapib, evacetrapib]
Figure 4D value per cell vs Voltage (mV) (WT Kv11.1; Voltage -40 mV): 16.5636 and 18.432 and 19.3043 and 18.0397 and 17.6 and 17.7987 and 17.7833 and 17.6688
Figure 4D value per cell vs Voltage (mV) (WT Kv11.1; Voltage -50 mV): 17.1571 and 17.6888 and 17.131 and 15.567 and 16.0065 and 16.8291 and 17.2705 and 17.4541
Figure 5E value per cell vs Voltage (mV) (WT Kv11.1; Voltage -50 mV): 902.031 and 870.108 and 1400.85 and 879.311 and 1017 and 1248.9
Figure 5F value per cell vs Voltage (mV) (WT Kv11.1; Voltage -50 mV): 6388.9 and 7989.38 and 5622.96
Figure 4D value per cell vs Voltage (mV) (WT Kv11.1; Voltage -60 mV): 15.2329 and 15.5388 and 14.7818 and 13.5682 and 12.8587 and 15.0819 and 14.9385 and 15.3669
Figure 5E value per cell vs Voltage (mV) (WT Kv11.1; Voltage -60 mV): 1032.08 and 966.812 and 405
Figure 5F value per cell vs Voltage (mV) (WT Kv11.1; Voltage -60 mV): 3804.89 and 9449.49 and 8793.8 and 3687.69 and 9196.29
Figure 4D value per cell vs Voltage (mV) (WT Kv11.1; Voltage -70 mV): 13.1624 and 13.1509 and 12.2005 and 10.7217 and 10.4496 and 12.0627 and 12.9211 and 13.7327
Figure 5E value per cell vs Voltage (mV) (WT Kv11.1; Voltage -70 mV): 981.118 and 839.618 and 778.428
Figure 5F value per cell vs Voltage (mV) (WT Kv11.1; Voltage -70 mV): 5126.65 and 3642.53 and 2594.13
Figure 4D value per cell vs Voltage (mV) (WT Kv11.1; Voltage -90 mV): 8.355 and 8.669 and 7.114 and 6.058 and 6.564 and 7.143 and 9.871 and 9.491
Figure 5E value per cell vs Voltage (mV) (WT Kv11.1; Voltage -90 mV): 372.839 and 359.851 and 360.592 and 394.825 and 418.114 and 332.621 and 441 and 468.124
Figure 5F value per cell vs Voltage (mV) (WT Kv11.1; Voltage -90 mV): 3977.04 and 1576.1 and 1475.11 and 1269.7 and 1679.13 and 1263.86 and 1827.67 and 3682.76
Figure 4D value per cell vs Voltage (mV) (WT Kv11.1; Voltage -100 mV): 5.9805 and 6.106 and 5.3207 and 4.4265 and 4.931 and 4.972 and 6.757 and 6.876
Figure 5E value per cell vs Voltage (mV) (WT Kv11.1; Voltage -100 mV): 366.452 and 329.996 and 269.807 and 269.273 and 487.907 and 220.859 and 396.726 and 472.93
Figure 5F value per cell vs Voltage (mV) (WT Kv11.1; Voltage -100 mV): 2314.55 and 1511.55 and 907.537 and 927.568 and 1874.88 and 839.178 and 1131.37 and 2375.79
Figure 4D value per cell vs Voltage (mV) (WT Kv11.1; Voltage -110 mV): 4.757 and 4.592 and 3.934 and 3.367 and 4.027 and 3.635 and 4.594 and 4.969
Figure 5E value per cell vs Voltage (mV) (WT Kv11.1; Voltage -110 mV): 253.98 and 258.663 and 186.827 and 175.481 and 304.962 and 138.114 and 283.639 and 296.398
Figure 5F value per cell vs Voltage (mV) (WT Kv11.1; Voltage -110 mV): 1302.55 and 1153.11 and 698.663 and 755.178 and 1277.44 and 611.635 and 865.285 and 1384.34
Figure 4D value per cell vs Voltage (mV) (WT Kv11.1; Voltage -120 mV): 3.611 and 3.4981 and 2.97 and 2.532 and 3.293 and 2.583 and 3.34 and 3.894
Figure 5E value per cell vs Voltage (mV) (WT Kv11.1; Voltage -120 mV): 244.589 and 219.981 and 132.908 and 108.36 and 189.369 and 89.3521 and 190.069 and 167.699
Figure 5F value per cell vs Voltage (mV) (WT Kv11.1; Voltage -120 mV): 3324.93 and 1104 and 582.988 and 644.385 and 999.7 and 579.372 and 805.065 and 656.376
Inactivation time constant (WT Kv11.1; Voltage step 0, WT): 11.1 ± 0.6 ms
Inactivation time constant (WT Kv11.1; Voltage step 10, WT): 8.5 ± 0.3 ms
Inactivation time constant (WT Kv11.1; Voltage step 20, WT): 6.3 ± 0.2 ms
Inactivation time constant (WT Kv11.1; Voltage step 30, WT): 4.6 ± 0.2 ms
Inactivation time constant (WT Kv11.1; Voltage step 40, WT): 3.4 ± 0.2 ms
Inactivation time constant (WT Kv11.1; Voltage step 50, WT): 2.6 ± 0.2 ms
Inactivation time constant (WT Kv11.1; Voltage step 60, WT): 2.1 ± 0.1 ms
Inactivation time constant (WT Kv11.1; Voltage step 70, WT): 1.6 ± 0.1 ms
Peak tail current (WT Kv11.1; Voltage step (mV) 0, WT, mean±SD): 66.0±31.5 pA/pF
Peak tail current (WT Kv11.1; Voltage step (mV) 10, WT, mean±SD): 53.8±28.6 pA/pF
Peak tail current (WT Kv11.1; Voltage step (mV) 20, WT, mean±SD): 43.6±25.2 pA/pF
Peak tail current (WT Kv11.1; Voltage step (mV) 30, WT, mean±SD): 34.5±20.7 pA/pF
Peak tail current (WT Kv11.1; Voltage step (mV) 40, WT, mean±SD): 28.0±16.9 pA/pF
Peak tail current (WT Kv11.1; Voltage step (mV) -10, WT, mean±SD): 78.0±33.4 pA/pF
Peak tail current (WT Kv11.1; Voltage step (mV) -20, WT, mean±SD): 89.2±35.1 pA/pF
Peak tail current (WT Kv11.1; Voltage step (mV) -30, WT, mean±SD): 95.9±34.9 pA/pF
Peak tail current (WT Kv11.1; Voltage step (mV) -40, WT, mean±SD): 95.8±33.5 pA/pF
Peak tail current (WT Kv11.1; Voltage step (mV) -50, WT, mean±SD): 86.7±30.0 pA/pF
Peak tail current (WT Kv11.1; Voltage step (mV) -60, WT, mean±SD): 68.2±25.6 pA/pF
Peak tail current (WT Kv11.1; Voltage step (mV) -70, WT, mean±SD): 41.5±21.4 pA/pF
Peak tail current (WT Kv11.1; Voltage step (mV) -80, WT, mean±SD): 7.2±20.3 pA/pF
Peak tail current (WT Kv11.1; Voltage step (mV) -90, WT, mean±SD): -32.8±24.4 pA/pF
Peak tail current (WT Kv11.1; Voltage step (mV) -100, WT, mean±SD): -76.7±33.7 pA/pF
Peak tail current (WT Kv11.1; Voltage step (mV) -110, WT, mean±SD): -125.2±46.2 pA/pF
Peak tail current (WT Kv11.1; Voltage step (mV) -120, WT, mean±SD): -176.7±61.8 pA/pF
Inactivation time constant (WT Kv11.1; Voltage step -10, WT): 13.6 ± 0.7 ms
Inactivation time constant (WT Kv11.1; Voltage step -20, WT): 15.5 ± 0.9 ms
Fast deactivation time constant (WT Kv11.1; Voltage step -60, WT): 801.3 ± 344.8 ms
Slow deactivation time constant (WT Kv11.1; Voltage step -60, WT): 6986.4 ± 2967.3 ms
Fast deactivation time constant (WT Kv11.1; Voltage step -70, WT): 866.4 ± 104.0 ms
Slow deactivation time constant (WT Kv11.1; Voltage step -70, WT): 3787.8 ± 1272.5 ms
Fast deactivation time constant (WT Kv11.1; Voltage step -90, WT): 393.5 ± 46.0 ms
Slow deactivation time constant (WT Kv11.1; Voltage step -90, WT): 2093.9 ± 1091.1 ms
Fast deactivation time constant (WT Kv11.1; Voltage step -100, WT): 351.7 ± 97.5 ms
Slow deactivation time constant (WT Kv11.1; Voltage step -100, WT): 1485.3 ± 634.8 ms
Fast deactivation time constant (WT Kv11.1; Voltage step -110, WT): 237.3 ± 62.3 ms
Slow deactivation time constant (WT Kv11.1; Voltage step -110, WT): 1006.0 ± 306.8 ms
Fast deactivation time constant (WT Kv11.1; Voltage step -120, WT): 167.8 ± 54.1 ms
Slow deactivation time constant (WT Kv11.1; Voltage step -120, WT): 1087.1 ± 925.0 ms
rate of activation (WT Kv11.1; WT): decelerated the rate of activation
rate of deactivation (WT Kv11.1; WT): slowed the rate of deactivation
rate of inactivation (WT Kv11.1; WT channels): did not affect the rate of inactivation
recovery from inactivation (WT Kv11.1; WT channels): slight delay in the reopening from inactivation
Time constants of activation (τ) (WT Kv11.1; WT, evacetrapib 15 μmol/L, individual cells): 764.055 and 877.888 and 1509 and 938.338 and 764.764 and 413.052
Activation τ (WT Kv11.1; WT, evacetrapib 15 μmol/L, mean ± SD): 877 ± 360 ms
Max (voltage dependence of activation) (WT Kv11.1; WT, mean±SD, N=11): 78.2 ± 26.7 pA/pF
Slope factor (voltage dependence of activation) (WT Kv11.1; WT, mean±SD, N=11): 9.0 ± 1.6
V1/2 (voltage dependence of activation) (WT Kv11.1; WT, mean±SD, N=11): -4.0 ± 8.4 mV
WT currents (WT Kv11.1; whole-cell patch-clamp): increases WT currents
peak plasma concentrations [1]: 1.9 to 8.2 µM
inhibition of WT channels (wild-type KV11.1): did not inhibit WT channels
